Laboratory results reported in patent US20250215039A1, “NUCLEOSIDES FOR TREATING CANCER” (PRIMEFOUR THERAPEUTICS, INC., priority 2022, published 2025).
Read-outs that look alike come from different tables or passages of the source.

Test system: cancer cell lines
Assay: Cancer cell proliferation activity (CellTiterGlo, 72 h)
Type: cell-based
Conditions: 72 h, 72 h, read-out: IC50
Method: Dose response relationships on cell proliferation was assessed for representative Compounds of the Disclosure on cancer cell lines. Briefly, compound treatment of cells started one day after seeding with a final DMSO concentration of 0.1%, and was performed by nanodrop-dispensing using a Tecan Dispenser. 0.1% DMSO (solvent) and Staurosporine (10 μM) served as high control (100% viability) and low control (0% viability), respectively.
Cells were cultured in the appropriate media. For the assays, cells were seeded in white cell culture-treated flat and clear bottom multiwell plates and incubated at 37° C. overnight before compound was added. After incubation for 72 h at 37° C. at 5% or 10% CO2 dependent on the medium, cell plates were equilibrated to room temperature for one hour, CellTiterGlo reagent (Promega) was added and luminescence was measured approximately an hour later using a luminometer.
Raw data were converted into percent cell viability relative to the high and low control, which were set to 100% and 0%, respectively.
The IC50 values are summarized in Tables 9A-1, Table 10A, and Table 10B.

Nc1nc(F)nc2c1ncn2[C@H]1C[C@H](O)[C@](CO)(CF)O1 [compound 150, (2R,3S,5R)-5-(6-amino-2-fluoro-9H-purin-9-yl)-2-(fluoromethyl)-2-(hydroxymethyl)tetrahydrofuran-3-ol]
IC50 (5637 cell line (bladder)): 4.05 µM
IC50 (AS49 cell line (lung)): > 50 µM
IC50 (CLS439 cell line (bladder)): > 50 µM
IC50 (HS729 cell line (muscle)): 12.3 µM
IC50 (JAR cell line (placenta)): 1.74 µM
IC50 (Homo sapiens, 22Rv1, 72 h, 22RV1 cell line (prostate)): > 50 µM
IC50 (Homo sapiens, 786-0, 72 h, 786O cell line (kidney)): 2.06 µM
IC50 (Homo sapiens, A204, 72 h, A204 cell line (muscle)): 3.33 µM
IC50 (Homo sapiens, A673, 72 h, A673 cell line (bone)): > 50 µM
IC50 (Homo sapiens, A2780, 72 h, A2780 cell line (ovary)): 4.62 µM
IC50 (Homo sapiens, A-375, 72 h, A375 cell line (skin)): 2.32 µM
IC50 (Homo sapiens, A-431, 72 h, A431 cell line (skin)): 2.32 µM
IC50 (Homo sapiens, ACHN, ACHN cell line (kidney)): > 50 µM
IC50 (Homo sapiens, ASPC1, 72 h, ASPC1 cell line (pancreas)): 2.3 µM
IC50 (Homo sapiens, BT-20, 72 h, BT20 cell line (breast)): 2.03 µM
IC50 (Homo sapiens, BXPC-3, 72 h, BXPC3 cell line (pancreas)): > 50 µM
IC50 (Homo sapiens, C-33-A, C33A cell line (cervical)): 4.21 µM
IC50 (Homo sapiens, CAKI-1, 72 h, CAKI1 cell line (kidney)): 0.32 µM
IC50 (Homo sapiens, COLO 205, 72 h, COLO205 cell line (colon)): > 50 µM
IC50 (Homo sapiens, COLO-678, 72 h, COLO678 cell line (colon)): > 50 µM
IC50 (Homo sapiens, Ca-Ski, CASKI cell line (cervical)): 1.69 µM
IC50 (Homo sapiens, Caco-2, 72 h, CACO2 cell line (colon)): 3.6 µM
IC50 (Homo sapiens, Calu-6, 72 h, CALU6 cell line (lung)): 4.12 µM
IC50 (Homo sapiens, DLD-1, 72 h, DLD1 cell line (colon)): > 50 µM
IC50 (Homo sapiens, DU-145, 72 h, DU145 cell line (prostate)): 1.47 µM
IC50 (Homo sapiens, EFO-21, 72 h, EFO21 cell line (ovary)): 3.32 µM
IC50 (Homo sapiens, EJ-28, 72 h, EJ28 cell line (bladder)): 3.49 µM
IC50 (Homo sapiens, Granta-519, 72 h, GRANTA-519 cell line (hematological)): 4.01 µM
IC50 (Homo sapiens, HCT-15, 72 h, HCT15 cell line (colon)): > 50 µM
IC50 (Homo sapiens, HCT-116, 72 h, HCT116 cell line (colon)): 2.89 µM
IC50 (Homo sapiens, HEK293, 72 h, HEK293 cell line (kidney)): 2.46 µM
IC50 (Homo sapiens, HL-60, 72 h, HL-60 cell line (hematological)): 3.85 µM
IC50 (Homo sapiens, HT-29, 72 h, HT29 cell line (colon)): 1.46 µM
IC50 (Homo sapiens, HT-1080, 72 h, HT1080 cell line (connective tissue)): > 50 µM
IC50 (Homo sapiens, HeLa, HELA cell line (cervical)): 4.53 µM
IC50 (Homo sapiens, HepG2, 72 h, HEPG2 cell line (liver)): 2.96 µM
IC50 (Homo sapiens, Hs-578T, HS578T cell line, breast): 6.12 µM
IC50 (Homo sapiens, IGROV-1, 72 h, IGROV1 cell line (ovary)): 2.03 µM
IC50 (Homo sapiens, IMR-90, 72 h, IMR90 cell line, lung): 4.24 µM
IC50 (Homo sapiens, J82, 72 h, J82 cell line (bladder)): 4.64 µM
IC50 (Homo sapiens, JEG-3, 72 h, JEG3 cell line (placenta)): 2.82 µM
IC50 (Homo sapiens, JIMT-1, 72 h, JIMT1 cell line (breast)): 1.23 µM
IC50 (Homo sapiens, K562, 72 h, K-562 cell line (hematological)): > 50 µM
IC50 (Homo sapiens, Kasumi 1, 72 h, KASUMI-1 cell line (hematological)): 2.16 µM
IC50 (Homo sapiens, L-363, 72 h, L-363 cell line (hematological)): 3.36 µM
IC50 (Homo sapiens, LoVo, LOVO cell line (colon)): 1.61 µM
IC50 (Homo sapiens, MCF7, 72 h, MCF7 cell line (breast)): > 50 µM
IC50 (Homo sapiens, MDA-MB-231, 72 h, MDAMB231 cell line (breast)): > 50 µM
IC50 (Homo sapiens, MDA-MB-435, 72 h, MDAMB435 cell line (skin)): > 50 µM
IC50 (Homo sapiens, MDA-MB-436, 72 h, MDAMB436 cell line (breast)): 3.22 µM
IC50 (Homo sapiens, MDA-MB-468, 72 h, MDAMB468 cell line (breast)): 4.45 µM
IC50 (Homo sapiens, MG-63, 72 h, MG63 cell line (bone)): > 50 µM
IC50 (Homo sapiens, MHH-ES-1, 72 h, MHHES1 cell line (bone)): 2.91 µM
IC50 (Homo sapiens, MIA PaCa-2, 72 h, MIAPACA2 cell line (pancreas)): > 50 µM
IC50 (Homo sapiens, MINO, MINO cell line (hematological)): 1.08 µM
IC50 (Homo sapiens, MV4-11, 72 h, MV4-11 cell line (hematological)): 0.63 µM
IC50 (Homo sapiens, NCI-H23, 72 h, NCI-H23 cell line (lung)): 3.29 µM
IC50 (Homo sapiens, NCI-H82, 72 h, NCIH82 cell line (lung)): 3.77 µM
IC50 (Homo sapiens, NCI-H292, 72 h, NCIH292 cell line (lung)): > 50 µM
IC50 (Homo sapiens, NCI-H460, 72 h, NCIH460 cell line (lung)): 3.37 µM
IC50 (Homo sapiens, OVCAR-3, 72 h, OVCAR3 cell line (ovary)): 2.05 µM
IC50 (Homo sapiens, OVCAR-4, 72 h, OVCAR4 cell line (ovary)): 3.52 µM
IC50 (Homo sapiens, PANC-1, 72 h, PANC1 cell line (pancreas)): > 50 µM
IC50 (Homo sapiens, PC-3, 72 h, PC3 cell line (prostate)): 5.77 µM
IC50 (Homo sapiens, PLC-PRF-5, 72 h, PLCPRF5 cell line (liver)): > 50 µM
IC50 (Homo sapiens, Panc1005, 72 h, PANC1005 cell line (pancreas)): 1.41 µM
IC50 (Homo sapiens, RD, RD cell line (muscle)): 6.72 µM
IC50 (Homo sapiens, Ramos, RAMOS cell line (hematological)): 2.44 µM
IC50 (Homo sapiens, SAOS-2, 72 h, SAOS2 cell line (bone)): 3.56 µM
IC50 (Homo sapiens, SF-268, 72 h, SF268 cell line (brain)): > 50 µM
IC50 (Homo sapiens, SF-295, 72 h, SF295 cell line (brain)): > 50 µM
IC50 (Homo sapiens, SK-BR-3, 72 h, SKBR3 cell line (breast)): 1.33 µM
IC50 (Homo sapiens, SK-HEP1, 72 h, SKHEP1 cell line (liver)): > 50 µM
IC50 (Homo sapiens, SK-LMS-1, 72 h, SKLMS1 cell line (uterus)): 2.29 µM
IC50 (Homo sapiens, SK-MEL-5, 72 h, SKMEL5 cell line, skin): > 50 µM
IC50 (Homo sapiens, SK-MEL-28, 72 h, SKMEL28 cell line (skin)): 9.02 µM
IC50 (Homo sapiens, SK-N-AS, SKNAS cell line (brain)): 6.83 µM
IC50 (Homo sapiens, SK-N-SH, SKNSH cell line (brain)): 2.91 µM
IC50 (Homo sapiens, SK-OV-3, 72 h, SKOV3 cell line (ovary)): 3.62 µM
IC50 (Homo sapiens, SNB-75, 72 h, SNB75 cell line (brain)): 14.9 µM
IC50 (Homo sapiens, SU-DHL10, 72 h, SU-DHL-10 cell line (hematological)): 2.62 µM
IC50 (Homo sapiens, SU-DHL-6, 72 h, SU-DHL-6 cell line (hematological)): 2.1 µM
IC50 (Homo sapiens, SW-620, 72 h, SW620 cell line (colon)): 3.12 µM
IC50 (Homo sapiens, T-24, 72 h, T24 cell line (bladder)): 6.26 µM
IC50 (Homo sapiens, TE-671, 72 h, TE671 cell line (muscle)): 12.6 µM
IC50 (Homo sapiens, THP-1, 72 h, THP-1 cell line (hematological)): 5.5 µM
IC50 (Homo sapiens, U2OS, U2OS cell line (bone)): > 50 µM
IC50 (Homo sapiens, U-87 MG, U87MG cell line (brain)): > 50 µM
IC50 (Homo sapiens, UMUC3, 72 h, UMUC3 cell line (bladder)): > 50 µM
IC50 (Homo sapiens, UO-31, 72 h, UO31 cell line (kidney)): 4.54 µM
IC50 (Homo sapiens, WSU-NHL, WSU-NHL cell line (hematological)): 4.87 µM
IC50 (MT-3, 72 h, MT3 cell line (breast)): 3.9 µM
IC50 (NCI-H358M, NCIH358M cell line (lung)): 2.63 µM
IC50 (PBMC, PBMC (hematological)): > 50 µM
IC50 (RD-ES, RDES cell line (bone)): 4.48 µM
